The substances below were run on Human dermal papilla cells (HDPCs) (assay: Activation of hair dermal papilla cell proliferation (CCK8 assay, absorbance at 450 nm)). Settings: serum-free DMEM, peptide at 0.1 μM, 1 μM and 10 μM, 72 hours.
Assay type: cell-based
Experimental: Human dermal papilla cells (HDPCs) were attached to a 96-well plate at 2,000 cells per well, and then cultured using DMEM medium (Sigma Aldrich) containing 10% FBS and 1% penicillin/streptomycin (P/S; Sigma Aldrich) for 24 hours, the medium was then exchanged with serum-free DMEM, and diluted samples were treated with a GPK, GPS, GPA, GQK, or PO peptide at a concentration of each of 0.1 μM, 1 μM, and 10 μM, for 72 hours, and then treated with a CCK8 reagent for 1 hour to measure the absorbance at 450 nm using a microplate reader (TECAN), and the results are shown in FIGS. 1 to 5 (FIG. 1: GPK, FIG. 2: GPS, FIG. 3: GPA, FIG. 4: GQK, and FIG. 5: PO). As a positive control (PC), a 5% fetal bovine serum (FBS) treated group was used.
For Gly-Gln-Lys [GQK], the “cell proliferation compared to the untreated control” value was “significantly increased”.
Gly-Pro-Ala [GPA] was tested, and the “cell proliferation compared to the untreated control” value was “significantly increased”.
For Gly-Pro-Lys [GPK], the “cell proliferation compared to the untreated control” value was “significantly increased”.
Gly-Pro-Ser [GPS] was tested, and the “cell proliferation compared to the untreated control” value was “significantly increased”.
In the case of Pro-Hyp [PO], the “cell proliferation compared to the untreated control” value is reported as “significantly increased”.
